In patent publication US20180148390A1, “METHOD AND COMPOSITION FOR RETAINING NUTRIENTS IN SOIL AT PLANTING SITES” (WaterScience, Inc., priority 2016, published 2018):
Values after ≈ are worked out from the molar mass of the structure shown.

Key:
[1] = Column retention of amino acid on WS A201; type: physicochemical; settings: for amount complexed and retained by the WS A 201 / amount passed through the column: 100 ml solution on 89 ml WS A201 column at 1.5 ml/min, displaced with 100 ml deionized water; for converted to cationic charge: from WS A201 column retention
Procedure: The modified alanine solution was added to 100 ml burette with 9 mm diameter at the rate of 1.5 ml/min. The column was filled with 89 ml of WS A201 (WaterScience, Inc., Peoria, Ill.) which has an anion exchange capacity of 2 EG Kg. To the burette was added 100 ml deionized water to displace the modified alanine. […] The 100 ml of deionized water containing 890.9 mg of unmodified alanine was added to another column containing fresh WS A 201. To the burette was also added 100 ml of deionized water to displace the unmodified alanine solution from the column.
The column was filled with 89 ml of WS A 201 which has an anion exchange capacity of 2 EG Kg. […] The 100 ml of deionized water containing 1471 mg of unmodified glutamic acid was added to another column containing fresh WS A 201. To the burette column was also added 100 ml of deionized water to displace the unmodified glutamic acid solution from the column.
The 1% modified leucine acid solution was added to 100 ml burette with 9 mm diameter at the rate of 1.5 ml/min. The column was filled with 89 ml of WS A 201 which has an anion exchange capacity of 2 EG Kg. To the burette was added 100 ml deionized water to displace the modified leucine. […] The 100 ml of deionized water containing 1312 mg of unmodified leucine was added to another column containing fresh WS A 201. To the burette was also added 100 ml of deionized water to displace the unmodified leucine solution from the column.

[2] = Electro-potential of amino acid in deionized water against a hydrogen electrode; type: physicochemical; settings: amino acid in 100 ml deionized water, electro-potential meter against hydrogen electrode
Procedure: After drying, 890.9 mg of the modified alanine (i.e., protonated alanine) was added to 100 ml of deionized water to form a modified alanine solution. The electro-potential of the modified alanine water mixture was measured with an electro-potential meter against a hydrogen electrode. […] 890.9 mg sample of unmodified alanine was added to 100 ml of deionized water.
890.9 mg sample of unmodified glutamic acid was added to 100 ml of deionized water.
After drying, 1902 mg of the modified leucine was added to 100 ml of deionized water to form a modified leucine solution. The electro-potential of the modified leucine water mixture was measured with an electro-potential meter against a Hydrogen electrode. […] 1312 mg sample of unmodified leucine was added to 100 ml of deionized water.

physchem = settings: for solubility: 25 °C, pH 7, water
Text: High solubility of naturally occurring positively charged amino acids are subject to runoff, which may be problematic. However, positively charged amino acids are better retained than negatively charged nitrate, sulfate, and phosphate which are poorly retained in the negatively charged soils.

| SMILES | amount complexed and retained by the WS A 201 [1] [mg] | amount passed through the column [1] [mg] | electro-potential [2] [mV] | converted to cationic charge [1] [%] | solubility (physchem) [mg/mL] | reduction of solubility by modification with a weak base to pH 10 (physchem; pH 10) [%] |
| --- | --- | --- | --- | --- | --- | --- |
| CC(C)C[C@H](N)C(=O)O [unmodified leucine, leucine, reference compound] | 41 | 1271 | – | – | – | – |
| CC(CNC(=N)N)C[C@H](N)C(=O)O (some centres unmarked) [modified leucine, Guanidine modified leucine] | 1246 | 66 | 197 | 95 | – | – |
| N[C@@H](CCC(=O)O)C(=O)O [unmodified glutamic acid, glutamic acid, reference compound] | 79 | 1392 | – | – | – | – |
| C[C@H](N)C(=O)O [modified alanine, Protonated alanine] | 845.8 | 45.1 | 177 | 94.9 | – | – |
| C[C@H](N)C(=O)O [unmodified alanine, alanine, reference compound] | 37.3 | 853.6 | – | – | – | – |
| NCCCC[C@H](N)C(=O)O [lysine] | – | – | – | – | 1000 (≈ 6840 mM) | 89 |
| N[C@@H](Cc1c[nH]cn1)C(=O)O [histidine] | – | – | – | – | 41.9 (≈ 270 mM) | – |
